Experimental data taken from patent US20260317374A1, “Carrier Peptide Fragment and Use Thereof” (TOAGOSEI CO., LTD., priority 2022, published 2026).
FAM = 5(6)-carboxyfluorescein

Test system: NSC-34 cells (mouse motor neuron-like hybrid cell line)
Test: Cell membrane permeability of sample in NSC-34 cells by flow cytometry
Type: cell-based
Conditions: for median fluorescence intensity (MFI): 10 μM sample (FAM concentration 10 μM), 0.5% DMSO, 20 hours at 37° C., 5% CO2, detector FL2
Procedure: In Example 1, a construct shown in Table 1 was prepared as a sample 1. Specifically, a construct formed of a synthetic peptide with the amino acid sequence set forth in SEQ ID No.: 1, in which an α-amino group of a lysine residue of an N-terminus is acetylated, and FAM (C21H12O7: 5(6)-carboxyfluorescein, molecular weight 376.3, excitation wavelength 495 nm, fluorescence wavelength 520 nm) corresponding to fluorescent dye bonded to the C-terminus of the synthetic peptide was prepared. The construct was diluted in dimethyl sulfoxide (DMSO) to prepare a sample solution 1 with a sample concentration of 2 mM.
As the eukaryotic cells, NSC-34 cells (mouse motor neuron-like hybrid cell line) were used and the cell membrane permeability of the sample 1 was evaluated. In Example 1, the prepared sample solution 1 was used, and in Example 2, the FAM solution was used.
The NSC-34 cell was cultured in 10% fetal bovine serum (FBS)-containing Dulbecco's modified Eagle's medium (DMEM (Cat No. 044-29765, manufactured by FUJIFILM Wako Pure Chemical Corporation)), which is a culture medium.
The NSC-34 cell that adhered to a culture plate was cleaned with PBS and then, a 0.25%-trypsin/EDTA solution was added thereto, and incubation was performed for three minutes at 37° C. After the incubation, the aforementioned 10% FBS-containing DMEM was added to deactivate trypsin and then, five-minute centrifugal separation was performed at 150×g to precipitate the cells. After the supernatant generated by the centrifugal separation was removed, the 10% FBS-containing DMEM was added to the precipitate (cell pellet) to prepare a cell suspension of about 1×10^5 cells/mL. The cell suspension was added by 1 mL to a well of a commercially available six-hole (well) plate (manufactured by AGC TECHNO GLASS Co., Ltd.) so as to seed the cell (about 1×10^5 cells/well). In addition, the 2 mM sample solution 1 was diluted with the 10% FBS-containing DMEM to prepare the sample solution 1 in which the concentration of the sample 1 was 20 μM. Then, 1 mL of the 20 μM sample solution 1 was added to the well (that is, so that the concentration of the sample 1 became […] and the DMSO concentration became 0.5% in the culture solution in the well). After that, the cell was incubated for 20 hours at 37° C. under a 5% CO2 condition.
After the 20-hour incubation, the culture supernatant was removed from the well and the cells in the well were cleaned twice with 1 mL of PBS. Next, 100 μL of the 0.25% trypsin/EDTA solution was added to the well and the incubation was performed for three minutes at 37° C. After the incubation, 900 µL of the 10% FBS-containing DMEM was added to the well to deactivate the trypsin. Subsequently, the cell suspension in the well was transferred to a tube and the cells were collected. After that, pre-washing was performed additionally, so that the cells remaining in the well were collected in the tube. This tube was subjected to five-minute centrifugal separation at 4° C. under a condition of 210×g. After the centrifugal separation, the supernatant was removed and the precipitate (cell pellet) was suspended (cleaned) with 1 mL of PBS, which was followed by the centrifugal separation under the same condition as that described above. […]
Regarding the obtained cells (cell pellet), the cell membrane permeability of the sample 1 was analyzed using a flow cytometer. […]

| Substance | cell membrane permeability of carrier peptide fragment (concluded from the FAM construct (Example 1 vs Example 2)) | median fluorescence intensity (MFI) | histogram position (flow cytometer, FIG. 1) (Example 1 compared to Example 2 (FAM), 20 hours) | cell membrane permeability (construct vs FAM alone, FIG. 1) |
| --- | --- | --- | --- | --- |
| SEQ ID No.: 1: carrier peptide fragment; synthetic peptide with amino acid sequence KFRAQRRW | achieves the cell membrane permeability | – | – | – |
| 5(6)-carboxyfluorescein [Example 2, reference compound] | – | 7.58 | – | – |
| Example 1: synthetic peptide of SEQ ID No.: 1 with N-terminal lysine α-amino group acetylated and FAM bonded to the C-terminus (Ac-KFRAQRRW-{FAM}) | – | 15.8 | shifted to the right side compared to the histogram according to Example 2 | higher cell membrane permeability than FAM alone |
